Experimental data: patent publication EP1021178B1, “SELENOPHENE ANTI-TUMOR AGENTS” (Purdue Research Foundation, priority 1996, dated 1997)

Tests used:
Assay in all cases: NCI human tumor cell panel
SNB-75 = conditions: SNB-75, read-out: Log10 LC50 (converted)
MDA-MB-435 = conditions: for CC50: MDA-MB-435, read-out: Log10 LC50 (converted)
SF-295 = conditions: for CC50: SF-295, read-out: Log10 LC50 (converted)
NCI-H23 = conditions: for CC50: NCI-H23, read-out: Log10 LC50 (converted); for IC (TGI): NCI-H23, read-out: Log10 TGI
UACC-62 = format: cell-based; conditions: UACC-62, read-out: Log10 LC50 (converted)
Source text: (§1) Considering the diversity of tumors in terms of cell type, morphology, growth rate and other cellular characteristics, the U.S. National Cancer Institute (NCI) has developed a "disease-oriented" approach to antitumor activity screening (M.R. Boyd, in "Principle of Practice of Oncology" J.T. Devita, S. Hellman, S.A. Rosenberg (Eds.) Vol. 3, PPO Update, No. 10, 1989). This in vitro prescreening system is based on the measurement of antitumor cytotoxicity against human tumor cell line panels consisting of approximately 60 cell lines of major human tumors (including leukemia and slower growing tumor cells such as lung, colon, breast, skin, kidney, etc.). The most important advantage of the new in vitro screening panels is the opportunity to identify compounds that are selectively more cytotoxic to cells of slowly growing solid tumors than to rapidly growing leukemia cells.
(§2) The cytotoxic activity of the present selenophene compounds have been measured utilizing two different assays or screens. The first screen measures the cytotoxicity against a panel of sixty different human tumor cell lines. This assay provides data regarding the general cytotoxicity of an individual compound. In particular this type of assay is useful in identifying compounds which have enhanced cytotoxic activity against slow growing tumors as compared to faster growing tumor cells such as leukemia tumor cell lines. The identification of such compounds is critical since previously identified antitumor agents have low cytotoxic activity against slower growing tumors. […] The specificity of a cytotoxic compound for tumor cell lines relative to normal cells is an important characteristic of an effective antitumor agent.
(§3) Antitumor cytotoxicity data generated from the National Cancer Institute human tumor cell panels can also be expressed in a graphic pattern (mean graph) to display differential cell growth inhibition (K.D. Paull, R.H. Shoemaker, L. Hodes, A. Monks, D.A. Scudiero, L. Rubinstein, J. Plowman and M.R. Boyd, J. Nail. Cancer Inst., 81, 1088, 1989.) In the mean graph, the arithmetic mean of the logarithm of the GI50 (50% growth inhibition), TGI (total growth inhibition) or LC50 (50% lethal concentration) values is used as an anchor point. […] The length of a bar is indicative of differential cytotoxicity against a specific type of tumor cells or tumor panels.
(§4) The antitumor cytotoxicity of the selenophene compounds tested in those in vitro assays was measured by a microculture assay using either a 3-(4,5-dimethylthiazol-2-yl)-2,5-diphenyltetrazolium bromide (MTT) or sulforhodamine B (SRB) based assay. [M.R. Boyd in "Principles and Practices of Oncology," V.T. DeVita, Jr.]. The experiments were conducted at Purdue University in 96-well microtiter plates and the cytotoxic effects of the selenophene compounds on those cells were measured by cell count using a Coulter Z.F. counter (Hialeah, FL). The results are expressed as GI50, the concentration of drug at which cell numbers are reduced to 50% of control cell culture [T.C.K. Chan, C.J. Chang, N.M. Koonchanok and R.L. Geahlen, Biochem. Biophys. Res. Commun., 193, 1152, (1993); S. Hellman and S.A. Rosenberg (Eds.), Vol. 3, PPO Updates, Number 10, (1989).]
(§5) This in vitro microculture assay has an advantage over in vivo assays in that results are obtained within a week as opposed to several months. The MTT assay is based on the production of a dark blue formazan product by dehydrogenase in the mitochondria of live tumor cells after exposure to drug for 6 days [M.C. Alley, D.A. Scudiero, A. Monks, M.L. Hursey, M.J. Czerwinski, D.L. Fine, B.J. Abbott, J.G. Mayo, R.H. Shoemaker and M.R. Boyd, Cancer Res., 48, 589, 1988]. Thus, only live cells are stained and can be measured at 570 nm. […]

KM12 = format: cell-based; conditions: KM12, read-out: Log10 LC50 (converted)
Source text: as §1, §2, §3, §4, §5

HCC-2998 = format: cell-based; conditions: HCC 2998, read-out: Log10 LC50 (converted)
Source text: as §1, §2, §3, §4, §5

M14 = format: cell-based; conditions: M14, read-out: Log10 LC50 (converted)
Source text: as §1, §2, §3, §4, §5

CCRF-CEM = format: cell-based; conditions: read-out: Log10 LC50 (converted)
Source text: as §1, §2, §3, §4, §5

HOP-92 = format: cell-based; conditions: HOP-92, read-out: Log10 LC50 (converted)
Source text: as §1, §2, §3, §4, §5

MDA-N = format: cell-based; conditions: read-out: Log10 LC50 (converted)
Source text: as §1, §2, §3, §4, §5

A498 = format: cell-based; conditions: A498, read-out: Log10 LC50 (converted)
Source text: as §1, §2, §3, §4, §5

ACHN = format: cell-based; conditions: read-out: Log10 LC50 (converted)
Source text: as §1, §2, §3, §4, §5

NCI-H522 = format: cell-based; conditions: NCI-H522, read-out: Log10 LC50 (converted)
Source text: as §1, §2, §3, §4, §5

HS 578T = format: cell-based; conditions: read-out: Log10 LC50 (converted)
Source text: as §1, §2, §3, §4, §5

SNB-19 = conditions: for CC50: SNB-19, read-out: Log10 LC50 (converted)
EKVX = conditions: for CC50: read-out: Log10 LC50 (converted)
MALME-3M = conditions: for CC50: read-out: Log10 LC50 (converted)
UO-31 = conditions: UO-31, read-out: Log10 LC50 (converted)
OVCAR-3 = conditions: OVCAR-3, read-out: Log10 LC50 (converted)
SK-MEL-5 = conditions: SK-MEL-5, read-out: Log10 LC50 (converted)

| Structure (SMILES) | CC50 (SNB-75) [µM] | CC50 (MDA-MB-435) [µM] | CC50 (SF-295) [µM] | CC50 (NCI-H23) [µM] | CC50 (UACC-62) [µM] | CC50 (KM12) [µM] | CC50 (HCC-2998) [µM] | CC50 (M14) [µM] | CC50 (CCRF-CEM) [µM] | CC50 (HOP-92) [µM] | LC50 (50% lethal concentration) (MDA-N) [µM] | CC50 (A498) [µM] | CC50 (ACHN) [µM] | CC50 (NCI-H522) [µM] | CC50 (HS 578T) [µM] | CC50 (SNB-19) [µM] | CC50 (EKVX) [µM] | CC50 (MALME-3M) [µM] | CC50 (OVCAR-3) [µM] | CC50 (SK-MEL-5) [µM] | further results |
| --- | --- | --- | --- | --- | --- | --- | --- | --- | --- | --- | --- | --- | --- | --- | --- | --- | --- | --- | --- | --- | --- |
| O=Cc1ccc(-c2ccc(-c3ccc(C=O)[se]3)s2)s1 | > 100 | > 100 | > 100 | > 100 | > 100 | > 100 | > 100 | > 100 | > 100 | > 100 | > 100 | 0.331 | > 100 | > 100 | > 100 | > 100 | > 100 | > 100 | > 100 | > 100 | IC (TGI) (SF-295; SF-295, read-out: Log10 TGI): > 100 µM; IC (TGI) (NCI-H23): > 100 µM; IC (TGI) (SNB-19; SNB-19, read-out: Log10 TGI): > 100 µM; CC50 (UO-31): > 100 µM |
| OCc1ccc(-c2ccc(-c3ccc(CO)[se]3)s2)s1 | > 100 | > 100 | > 100 | > 100 | > 100 | > 100 | 44.7 | > 100 | > 100 | > 100 | > 100 | 0.0724 | > 100 | > 100 | > 100 | > 100 | > 100 | > 100 | 50.1 | > 100 | CC50 (UO-31): > 100 µM |
| OCc1ccc(-c2ccc(-c3ccc[se]3)s2)[se]1 | > 100 | > 100 | > 100 | 91.2 | > 100 | > 100 | > 100 | > 100 | > 100 | > 100 | > 100 | 0.302 | > 100 | 55 | > 100 | > 100 | > 100 | > 100 | 40.7 | > 100 | IC (TGI) (MALME-3M; read-out: Log10 TGI): > 100 µM; CC50 (UO-31): > 100 µM |
| OCc1ccc(-c2ccc(-c3ccc[se]3)[se]2)[se]1 | > 100 |  | 72.4 | 70.8 | 67.6 | 52.5 | 53.7 | 61.7 | > 100 | 38 | > 100 | 0.692 |  | 23.4 |  | > 100 | 42.7 | 50.1 | 6.92 | 29.5 | IC (TGI) (NCI-H23): 30.9 µM; CC50 (UO-31): > 100 µM |
| OCc1ccc(-c2ccc(-c3ccc(CO)[se]3)[se]2)[se]1 | > 100 | 49 | 70.8 | 95.5 | 44.7 | 50.1 | 12.6 | 49 | > 100 | 55 | 74.1 | 7.24 | > 100 | 7.08 | 46.8 | 91.2 | > 100 | 56.2 | 5.37 | 6.31 | CC50 (UO-31): 38.9 µM |
| OCc1ccc(-c2ccc(-c3ccc(CO)s3)[se]2)s1 |  | > 100 | > 100 | > 100 | > 100 | > 100 | > 100 | > 100 | > 100 | > 100 | > 100 | 0.158 | > 100 | > 100 | > 100 | > 100 | > 100 | > 100 | > 100 | > 100 | CC50 (UO-31): > 100 µM |
| OCc1ccc(-c2ccc(-c3ccc(CO)[se]3)s2)[se]1 | > 100 | > 100 | > 100 | > 100 | > 100 | > 100 | 2.45 | > 100 | > 100 | 0.324 | > 100 | 0.0955 | > 100 |  | > 100 | > 100 | > 100 | > 100 | > 100 | > 100 | IC (TGI) (MDA-MB-435; MDA-MB-435, read-out: Log10 TGI): > 100 µM; CC50 (UO-31): > 100 µM |
| O=Cc1ccc(-c2ccc(-c3ccc(C=O)[se]3)s2)[se]1 | > 100 | > 100 | > 100 | > 100 | > 100 | > 100 | > 100 | > 100 | > 100 | > 100 | > 100 |  | > 100 | > 100 | > 100 | > 100 | > 100 | > 100 | > 100 | > 100 | IC (TGI) (EKVX; read-out: Log10 TGI): > 100 µM; CC50 (UO-31): > 100 µM |
| O=Cc1ccc(-c2ccc(-c3ccc(C=O)s3)[se]2)s1 | > 100 | > 100 | > 100 | > 100 | > 100 | > 100 | 74.1 | > 100 | > 100 | > 100 | > 100 | 4.07 | > 100 | > 100 | > 100 | > 100 | > 100 | > 100 | 4.07 | > 100 |  |
